In the oligonucleotide strings, read from the 5' end, every base follows the letter of its sugar. An asterisk marks phosphorothioate; unmarked linkages are phosphodiester. Other units and linkages are bracketed, terminal groups are in braces. A string of capitals states the bases alone. d = 2'-deoxy (DNA)
Tests used:
Assay type in all cases: cell-based, human
PARP [1] = test: PARP cleavage by immunoblot in T47D cells
Protocol: (§1) As a further measure of apoptosis, cleavage of PARP was next examined. This protein is cleaved by caspases and results in appearance of Mr 85,000 and Mr 24,000 fragments, the latter of which binds irreversibly to broken ends of DNA, which assures irreversibility of apoptosis. Both breast cancer cell lines were transfected with antisense p21 and random sequence ODNs and immunoblotted with PARP antibody. […] T47D (A) and MCF7 (B) cells were grown to confluence, serum starved for 24 hours, and lipofected with antisense p21 or control ODN at the concentrations indicated. cont refers to nontransfected cells, and lipofect refers to cells treated with lipofectin but no DNA. The cells were lysed, and equal protein quantities were electrophoresed and immunoblotted with PARP antibody. The degradation product of PARP (Mr 85,000) is indicated by an arrow. MAPK is a loading control; a positive PARP cleavage control is Jurkat whole cell lysate.

p21 [2] = test: p21 level in MCF7 cells (immunoblot, immunohistochemistry); details: for p21 level by immunoblot: 200 or 400 nM, 24 hours after transfection
Protocol: (§2) Antisense Transfections: […] (Wilsonville, Oreg.). The human p21 antisense ODN sequence was [NT] ID NO.: 4). The randomly scrambled sequence of control ODN was [NT] ID NO.: 3), and the second control ODN (used for the experiment depicted in FIG. 34 was the sense human p21 sequence [NT] ID NO.: 5). For the transfection procedure, cells were grown to 70% confluence and washed with sterile PBS, and the ODNs (200 or 400 nM) were mixed with 6.6 μl Lipofectin/ml Opti-MEM media and added to the cells for 5 hours at 37° C. Serum-free media (without ODNs) were added overnight, the media were changed in the morning, and the cells were stimulated with serum or platelet-derived growth factor-BB as indicated. Immunoblotting: For FIGS. 27A and B, aliquots of each breast tumor (7) and corresponding normal (N) tissue were homogenized and subjected to immunoblotting with full-length p21 antibody and α-actin as a loading control. Density of p21 and actin bands was determined and reported as a ratio. HeLa cell nuclear extract was electrophoresed on the same gel as a positive control for p21 mobility. The samples of breast cancer tissues were cut into small pieces and rapidly homogenized in lysis buffer (1 ml/ mg) at 4° C. Cells from cell lines were grown to confluence in 60-mm culture dishes, and after incubation under appropriate conditions, the cells were washed with PBS and lysed in lysis buffer at 4° C. The tissue homogenates or cell lysates were centrifuged (13,000× g, 4° C., 10 min), and the supernatants were Western blotted as described previously (Weiss, […]., and Ramirez, A., Am. J. Physiol., 274: […]-[…], 1998). Densitometry was analyzed using NIH Image. […] Percentage of cytoplasmic and nuclear staining, intensity of staining (using a scale of 0 to 3+), and tumor grading using a modified Bloom-Richardson combined histological grade were determined by a breast pathologist. […] A and B, the cells were lysed, and equal protein quantities (20 μg) were electrophoresed and immunoblotted with p21 antibody. […] Density of p21 and MAPK bands was determined and reported as a ratio. […]

PARP [3] = test: PARP cleavage by immunoblot in MCF7 cells
Protocol: as §1

p21 [4] = test: p21 level in T47D cells (immunoblot, immunohistochemistry); details: for p21 level by immunoblot: 200 or 400 nM, 24 hours after transfection
Protocol: as §2

[5] = compared with random sequence ODN

Substance | PARP cleavage (Mr 85,000 product) (PARP [1]) | p21 level by immunoblot (p21 [2]) | p21 staining by immunohistochemistry (p21 [2]; [5]) | PARP cleavage (Mr 85,000 product) (PARP [3]) | p21 level by immunoblot (p21 [4]) | p21 staining by immunohistochemistry (p21 [4]; [5])
5′-ATC-CCC-AGC-CGG-TTC-TGA-CAT-3′ (antisense ATCCCCAGCCGGTTCTGACAT; listed as DNA, chemistry not fully specified) [antisense p21 ODN] | marked PARP cleavage | marked, dose-dependent attenuation | decreased p21 staining | marked PARP cleavage | marked, dose-dependent attenuation | decreased p21 staining
5′-TGG ATC CGA CAT GTC AGA-3′ (dT*dG*dG*dA*dT*dC*dC*dG*dA*dC*dA*dT*dG*dT*dC*dA*dG*dA) [random sequence control oligonucleotide, reference compound] | proapoptotic effect | moderate decrease | – | proapoptotic effect | inhibitory effect | –
